Experimental data as given in patent US20240368096A1 (Enanta Pharmaceuticals, Inc., priority 2022, published 2024).

system: HBV; assay: HBV infection in HepG2-NTCP cells (HBeAg AlphaLISA in supernatants); assay type: cell-based; details: Hepatitis B virus, 192 h; HBV infection of HepG2-NTCP cells; HBeAg in supernatants at day 8 post infection; read-out: Cellular EC50
Summary of the method: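 Readout was day-8 supernatant HBeAg by AlphaLISA, with EC50 set against DMSO controls and binned A<0.1 μM, B 0.1-1 μM, C>1 μM. Compounds were added 2 h before HBV (2000 GE/cell, 4% PEG, 0.5% DMSO) to HepG2-NTCP A3 cells; from day 1 medium held 2.5% DMSO.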

Structure (SMILES) | EC50
CN1[C@H](C2CCCCC2)CN(c2ccccc2)c2cc(Oc3ccccc3F)c(-c3ccc(Cl)c(C(=O)O)c3)cc2S1(=O)=O [Example 401, (R)-2-chloro-5-(3-cyclohexyl-7-(2-fluorophenoxy)-2-methyl-1,1-dioxido-5-phenyl-2,3,4,5-tetrahydrobenzo[f][1,2,5]thiadiazepin-8-yl)benzoic acid] | < 0.1 µM
CN1[C@H](C2CCCCC2)CN(c2ccccc2)c2cc(Oc3cccc(F)c3F)c(-c3ccc(F)c(C(=O)O)c3)cc2S1(=O)=O [Example 402] | < 0.1 µM
CN1[C@H](C2CCCCC2)CN(c2ccccc2)c2cc(Oc3cc(F)ccc3F)c(-c3ccc(F)c(C(=O)O)c3)cc2S1(=O)=O [Example 403] | < 0.1 µM
CN1[C@H](C2CCCCC2)CN(c2ccccc2)c2cc(Oc3ccc(F)c(F)c3)c(-c3ccc(F)c(C(=O)O)c3)cc2S1(=O)=O [Example 404] | < 0.1 µM
CN1[C@H](C2CCCCC2)CN(c2ccccc2)c2cc(Oc3cc(F)cc(F)c3)c(-c3ccc(F)c(C(=O)O)c3)cc2S1(=O)=O [Example 405] | < 0.1 µM
COc1cc(F)ccc1Oc1cc2c(cc1-c1ccc(F)c(C(=O)O)c1)S(=O)(=O)N(C)[C@H](C1CCCCC1)CN2c1ccccc1 [Example 406] | < 0.1 µM
COc1c(F)cccc1Oc1cc2c(cc1-c1ccc(F)c(C(=O)O)c1)S(=O)(=O)N(C)[C@H](C1CCCCC1)CN2c1ccccc1 [Example 407] | < 0.1 µM
COc1cc(F)cc(Oc2cc3c(cc2-c2ccc(F)c(C(=O)O)c2)S(=O)(=O)N(C)[C@H](C2CCCCC2)CN3c2ccccc2)c1 [Example 409] | < 0.1 µM
Cc1c(F)cccc1Oc1cc2c(cc1-c1ccc(F)c(C(=O)O)c1)S(=O)(=O)N(C)[C@H](C1CCCCC1)CN2c1ccccc1 [Example 410] | < 0.1 µM
Cc1ccc(Oc2cc3c(cc2-c2ccc(F)c(C(=O)O)c2)S(=O)(=O)N(C)[C@H](C2CCCCC2)CN3c2ccccc2)cc1F [Example 411] | < 0.1 µM
Cc1cc(F)cc(Oc2cc3c(cc2-c2ccc(F)c(C(=O)O)c2)S(=O)(=O)N(C)[C@H](C2CCCCC2)CN3c2ccccc2)c1 [Example 412] | < 0.1 µM
Cc1ccc(F)cc1Oc1cc2c(cc1-c1ccc(F)c(C(=O)O)c1)S(=O)(=O)N(C)[C@H](C1CCCCC1)CN2c1ccccc1 [Example 413] | 0.1 to 1 µM
CN1[C@H](C2CCCCC2)CN(c2ccccc2)c2cc(Oc3ccccn3)c(-c3ccc(F)c(C(=O)O)c3)cc2S1(=O)=O [Example 414] | 0.1 to 1 µM
CN1[C@H](C2CCCCC2)CN(c2ccccc2)c2cc(Oc3cccnc3)c(-c3ccc(F)c(C(=O)O)c3)cc2S1(=O)=O [Example 415] | 0.1 to 1 µM
CN1[C@H](C2CCCCC2)CN(c2ccccc2)c2cc(Oc3ccncc3)c(-c3ccc(F)c(C(=O)O)c3)cc2S1(=O)=O [Example 416] | > 1 µM
CCCC[C@@H]1CN(c2ccccc2)c2cc(Oc3ccc(Cl)cc3)c(-c3ccc(F)c(C(=O)O)c3)cc2S(=O)(=O)N1C [Example 418] | < 0.1 µM
CCCC[C@@H]1CN(c2ccccc2)c2cc(Oc3ccccc3C(F)(F)F)c(-c3ccc(F)c(C(=O)O)c3)cc2S(=O)(=O)N1C [Example 419] | < 0.1 µM
CCCC[C@@H]1CN(c2ccccc2)c2cc(Oc3cccc(OC)c3)c(-c3ccc(F)c(C(=O)O)c3)cc2S(=O)(=O)N1C [Example 420] | 0.1 to 1 µM
CCCC[C@@H]1CN(c2ccccc2)c2cc(Oc3ccc(F)cc3)c(-c3ccc(F)c(C(=O)O)c3)cc2S(=O)(=O)N1C [Example 421] | 0.1 to 1 µM
CCCC[C@@H]1CN(c2ccccc2)c2cc(Oc3ccccc3Cl)c(-c3ccc(F)c(C(=O)O)c3)cc2S(=O)(=O)N1C [Example 422] | 0.1 to 1 µM
CCCC[C@@H]1CN(c2ccccc2)c2cc(Oc3cccc(Cl)c3)c(-c3ccc(F)c(C(=O)O)c3)cc2S(=O)(=O)N1C [Example 423] | < 0.1 µM
CC(C)C[C@@H]1CN(c2ccccc2)c2cc(Oc3ccccc3F)c(-c3ccc(Cl)c(C(=O)O)c3)cc2S(=O)(=O)N1C [Example 424] | < 0.1 µM
CC(C)C[C@@H]1CN(c2ccccc2)c2cc(Oc3cccc(C(F)(F)F)c3)c(-c3ccc(F)c(C(=O)O)c3)cc2S(=O)(=O)N1C [Example 425] | < 0.1 µM
